Assays:
elastase = assay: Inhibition of elastase expression in human fibroblasts (ELISA kit); type: cell-based; conditions: 10^−4M, 24 hours, serum-free medium, relative to control group = 100
Description: (§1) For each culture fluid, elastase production was measured with elastase kit (commercialized by AmershamPharmacia Biotech). Firstly, the culture fluid was added to 96-well plate spread with primary elastase antibody and then antigen-antibody reaction was performed in an incubator for 3 hours. Later, chromophore-conjugated secondary antibody was added to the 96-well plate and then reacted for 15 minutes. Then, color former was added thereto, to induce development at room temperature for 15 minutes. 1M of sulfuric acid was added to stop the reaction. […] The color density depends on the progress of the reaction. The absorbance of the yellow 96-well plate was measured at 405 nm using absorptiometer. Elastase expression was calculated by the following equation 2. Herein, the absorbance of the culture fluid collected from the medium with no material treated was used as a control. Elastase expression (%)=(Absorbance of test group with said material treated/Absorbance of control group with no material treated)×100 [Equation 2]
Elastase expression was evaluated as a relative value, in consideration that the value of control group with no material treated is 100.

collagenase = assay: Inhibition of collagenase expression in human fibroblasts (ELISA kit); type: cell-based; conditions: 10^−4M, 24 hours, serum-free medium, relative to control group = 100
Description: Human fibroblasts were seeded into 96-well microtiter plate at 5,000 cells per well and then cultured to 90% of growth in DMEM (Dulbecco's Modified Eagle's Media) supplemented with 2.5% fetal bovine serum. Then, the fibroblastes were cultured in serum-free DMEM for 24 hours and treated for 24 hours with 10^−4M of hydroxamic acid derivatives of Examples 1˜55, retinol or retinoic acid in serum-free medium, and then the culture fluid was collected.
as §1, with “collagenase” for “elastase”, “Collagenase” for “Elastase”, “1.” for “2.”, “1]” for “2]”
Collagenase expression was evaluated as a relative value, in consideration that the value of control group with no material treated is 100.

RARα = molecular target: T1, RARα (Homo sapiens, UniProt P10276); assay: RARE-luciferase reporter assay in transfected CV-1 cells (affinity to retinoic acid receptor), RARα; type: cell-based; conditions: treated 24 hours at final concentration 10^−4M, control group 1000
T1 construct: expressed in transfected cells; host or cells: CV-1 cells (ATCC)
T1 sequence (P10276 1-462): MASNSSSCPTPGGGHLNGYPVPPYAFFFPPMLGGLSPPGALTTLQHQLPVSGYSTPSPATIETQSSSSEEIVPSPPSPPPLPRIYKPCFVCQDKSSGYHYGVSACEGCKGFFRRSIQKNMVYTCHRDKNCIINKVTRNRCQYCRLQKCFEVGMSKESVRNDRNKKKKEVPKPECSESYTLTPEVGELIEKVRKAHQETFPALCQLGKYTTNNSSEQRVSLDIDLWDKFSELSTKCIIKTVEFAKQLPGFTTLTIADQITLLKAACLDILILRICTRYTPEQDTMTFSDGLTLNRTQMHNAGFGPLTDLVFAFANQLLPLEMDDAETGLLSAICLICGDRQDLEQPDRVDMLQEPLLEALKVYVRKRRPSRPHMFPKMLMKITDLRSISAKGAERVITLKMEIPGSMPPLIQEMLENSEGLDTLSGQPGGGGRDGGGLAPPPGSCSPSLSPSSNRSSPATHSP
Text: This example illustrates affinities of hydroxamic acid derivatives obtained in Examples 1 to 55 to retinoic acid receptor, in comparison with retinol and retinoic acid.
(§2) Receptor-expression plasmid, pECE-RARα and pECE-RARγ were engineered by the prior method (Mol. Cell. Biol. 1996, 16, 1138-1149). RARE-tk-Luc, i.e. RARE reporter was obtained by inserting RARE fragment from b-RARE-tk-CAT into pGL3 luciferase basic vector. CV-1 cells were obtained from ATCC (American Type Culture Collection).
CV-1 cells were seeded into 96-well microtiter plate at 5,000 cells per well and cultured in DMEM (Dulbecco's Modified Eagle's Media) supplemented with 2.5% fetal bovine serum. 24 Hours later, the cells were transfected with 10 ng of pECE-RARα, long of pECE-RARγ, 100 ng of reporter plasmid and 100 ng of β-galactosidase-expression vector, using LipofectaminPlus (GIBCO BRL, grand island, N.Y.). 24 Hours post-transfection, the cells were treated for 24 hours with hydroxamic acid derivatives of Examples 1˜55 or retinol at a final concentration of 10^−4M or with retinoic acid at a final concentration of 10^−5M, which is 10 times lower concentration than those of the former.

rabbits = assay: Primary skin irritation test on animals (Draize P.I.I.); conditions: depilated back; for P.I.I. (Primary Irritation Index): 0.5 ml of 1% solution in 1,3-butylene glycol:ethanol 7:3, observed 24 or 72 hours later; for Evaluation (skin irritation): 1% solution, according to Draize's P.I.I.
Description: Test was performed using fifty-six (56) of healthy male rabbits whose backs were depilated. […] 0.5ml of the test sample solution was applied to the right site of 2.5 cm×2.5 cm region on each of the depilated back. Left site with no sample treated was compared as a control. 24 hours or 72 hours later, skin abnormality such as erythema, crust and edema was observed.
Based on the score of skin response, skin irritation was evaluated according to Draize's P.I.I.(Primary Irritation Index) and compared with retinoic acid.

RARγ = molecular target: T2, RARγ (Homo sapiens, UniProt P13631); assay: RARE-luciferase reporter assay in transfected CV-1 cells (affinity to retinoic acid receptor), RARγ; type: cell-based; conditions: treated 24 hours at final concentration 10^−4M, control group 5000
T2 construct: expressed in transfected cells; host or cells: CV-1 cells (ATCC)
T2 sequence (P13631 1-454): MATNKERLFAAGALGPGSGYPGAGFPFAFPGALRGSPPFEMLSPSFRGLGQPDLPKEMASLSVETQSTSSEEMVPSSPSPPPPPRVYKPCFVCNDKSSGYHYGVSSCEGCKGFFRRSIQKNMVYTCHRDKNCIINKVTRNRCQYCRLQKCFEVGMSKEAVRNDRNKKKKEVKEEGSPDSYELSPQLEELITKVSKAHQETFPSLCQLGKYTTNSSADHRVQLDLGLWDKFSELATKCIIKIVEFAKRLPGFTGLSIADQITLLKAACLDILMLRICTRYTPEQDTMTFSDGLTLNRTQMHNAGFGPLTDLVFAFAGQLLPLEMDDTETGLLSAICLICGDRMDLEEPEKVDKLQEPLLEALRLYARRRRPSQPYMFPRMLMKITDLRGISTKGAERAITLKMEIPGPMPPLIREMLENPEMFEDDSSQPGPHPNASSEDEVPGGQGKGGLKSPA
Description: as §2
CV-1 cells were seeded into 96-well microtiter plate at 5,000 cells per well and cultured in DMEM (Dulbecco's Modified Eagle's Media) supplemented with 2.5% fetal bovine serum. 24 Hours later, the cells were transfected with 10 ng of pECE-RARα, long of pECE-RARγ, 100 ng of reporter plasmid and 100 ng of β-galactosidase-expression vector, using LipofectaminPlus (GIBCO BRL, grand island, N.Y.).

procollagen type I = assay: Effect on collagen biosynthesis (procollagen type I ELISA) in human fibroblasts; type: cell-based; conditions: 10^−4M, 24 hours, serum-free medium, relative to control group = 100
Description: Human fibroblasts were seeded into 24-well plate at 1×10^5 cells per well and then cultured to 90% of growth.
For each supernatant, procollagen production was measured with procollagen type I ELISA kit.

white guinea pigs = assay: Phototoxicity test (UVA irradiation); conditions: for Evaluation (phototoxicity): 1%(w/v) solution, UVA 15 J/cm^2; for Phototoxic index: 50 μl of 1%(w/v) solution, UVA 320~380 nm 15 J/cm^2, observed 24, 48 and 72 hours
Description: Test was performed for twenty-five (25) of white guinea pigs whose backs were depilated and fixed. On both sides of the back, six(6) sites of 2 cm×2 cm, three(3) per side were sectioned. Right sites were compared as controls with no irradiation (UV non-irradiation sites) and left sites were irradiated (UV irradiation sites).
30 Minutes later, right sites were shielded with aluminum foil and UVA(320˜380 nm) was irradiated at a distance of about 10 cm therefrom using Waldmann to the final energy of 15 J/cm^2. After 24, 48 and 72 hours elapsed, skin response of guinea pig was observed. […] Evaluation was estimated for each elapsed time, i.e. 24, 48 and 72 hours and maximum scores were selected, to calculate irritation index by the following equation 3. Then, phototoxic index was calculated by the following equation 4. Irritation index=(ΣMaximum of erythema+ΣMaximum of edema)/Number of animals [Equation 3] Phototoxic index=(Irritation index of UV irradiation site)−(Irritation index of UV non-irradiation site) Equation 4]

Structure (SMILES)	Elastase expression (%) (elastase)	Collagenase expression (%) (collagenase)	Luciferase activity RARα (RARα)	P.I.I. (Primary Irritation Index) (rabbits)	Evaluation (skin irritation) (rabbits)	Luciferase activity RARγ (RARγ)	Collagen biosynthesis (%) (procollagen type I)	Evaluation (phototoxicity) (white guinea pigs)	Phototoxic index (white guinea pigs)
O=C(NO)c1ccc(NC(=O)c2ccccc2)cc1 [Example 1, N-[4-(N-hydroxycarbamoyl)phenyl]benzamide]	79	78	10000	0.375	No irritation	12000	105	No phototoxicity (lower value than 0.5, criterion value to be estimated as no phototoxicity)	0
Cc1ccc(C(=O)Nc2ccc(C(=O)NO)cc2)cc1 [Example 2, N-[4-(N-hydroxycarbamoyl)phenyl][4-methylphenyl]carboxyamide]	78	68	12000	0.345	No irritation	11200	118	No phototoxicity (lower value than 0.5, criterion value to be estimated as no phototoxicity)	0
Cc1cccc(C(=O)Nc2ccc(C(=O)NO)cc2)c1 [Example 3, N-[4-(N-hydroxycarbamoyl)phenyl][3-methylphenyl]carboxyamide]	69	80	11600	0.375	No irritation	10000	120	No phototoxicity (lower value than 0.5, criterion value to be estimated as no phototoxicity)	0
CCc1ccc(C(=O)Nc2ccc(C(=O)NO)cc2)cc1 [Example 4, N-[4-(N-hydroxycarbamoyl)phenyl][4-ethylphenyl]carboxyamide]	70	78	12000	0.350	No irritation	12300	119	No phototoxicity (lower value than 0.5, criterion value to be estimated as no phototoxicity)	0
CCCc1ccc(C(=O)Nc2ccc(C(=O)NO)cc2)cc1 [Example 5, N-[4-(N-hydroxycarbamoyl)phenyl][4-propylphenyl]carboxyamide]	78	79	18000	0.375	No irritation	11000	125	No phototoxicity (lower value than 0.5, criterion value to be estimated as no phototoxicity)	0
CC(C)c1ccc(C(=O)Nc2ccc(C(=O)NO)cc2)cc1 [Example 6, N-[4-(N-hydroxycarbamoyl)phenyl][4-isopropylphenyl]carboxyamide]	79	85	14500	0.315	No irritation	12300	124	No phototoxicity (lower value than 0.5, criterion value to be estimated as no phototoxicity)	0
CCCCc1ccc(C(=O)Nc2ccc(C(=O)NO)cc2)cc1 [Example 7, N-[4-(N-hydroxycarbamoyl)phenyl][4-butylphenyl]carboxyamide]	77	84	12000	0.312	No irritation	11700	109	No phototoxicity (lower value than 0.5, criterion value to be estimated as no phototoxicity)	0
CN(O)C(=O)c1ccc(C(=O)NC23CC4CC(CC(C4)C2)C3)cc1 [Example 44, N-adamantyl [4-(N-hydroxy-N-methylcarbamoyl)phenyl]carboxyamide]			23100					No phototoxicity (lower value than 0.5, criterion value to be estimated as no phototoxicity)	
CC1=C(/C=C/C(C)=C/C=C/C(C)=C/C(=O)O)C(C)(C)CCC1 [Retinoic acid, retinoic acid, reference compound]	68	60		1.830	Light irritation		125		
CC1=C(/C=C/C(C)=C/C=C/C(C)=C/CO)C(C)(C)CCC1 [Retinol, retinol, reference compound]	88	85	2500			6000	120		

— patent publication US7282522B2, “Hydroxamic acid derivatives and the method for preparing thereof” (Amorepacific Corporation, priority 2003, dated 2007)
